This note sets out measurements from patent US12673063B2, “Methods and materials for treatment of fibrosis” (Massachusetts Eye and Ear Infirmary, priority 2020, dated 2026).

In data set [1] the test system is A549 cells. Put plainly: CyQUANT Direct Cell Proliferation Assay, A549. The class given is cell-based, human. The conditions noted are these: for percent live cells compared to vehicle treated: 48 hours, Ro5-3335 150 μM, Ro24-7429 50 μM-200 μM, Pirfenidone 500 μg/ml, Nintedanib 5 μM; for anti-proliferative effect: 150 μM. On the procedure:
Human type II alveolar epithelial cells (A549) were a generous gift from Dr. Lagares (Mass General Hospital). Cells were maintained in low glucose-DMEM containing 10% FBS, 2 mM L-glutamine, 100 U/ml penicillin and 100 μg/ml streptomycin at 37° C. in a humidified 5% C02 atmosphere. Confluent cultures of cells were pretreated with Ro24-7429 for 24 hours followed by stimulation with 5 ng/ml of TGF-β1.
(§1) We tested the effect of RUNX1 inhibition on the proliferation of a human alveolar basal epithelial cell line (A549), primary human-derived pulmonary alveolar epithelial cells (HPAEpi), and in human-derived primary culture lung fibroblasts (HLF). For specific analyses we used escalating doses of Ro24-7429 (50-200 μM), Ro5-3335 (150 μM), pirfenidone (500 μg/ml) and nintedanib (5 μM), the latter two are currently approved drugs for IPF.

In data set [2] the test system is A549 cells. Put plainly: Lactate dehydrogenase (LDH) cell death assay, A549. The class given is cell-based. The conditions noted are these: for cell death: 500μ g/ml. On the procedure:
Human type II alveolar epithelial cells (A549) were a generous gift from Dr. Lagares (Mass General Hospital). Cells were maintained in low glucose-DMEM containing 10% FBS, 2 mM L-glutamine, 100 U/ml penicillin and 100 μg/ml streptomycin at 37° C. in a humidified 5% C02 atmosphere.
We tested the effect of RUNX1 inhibition on the proliferation of a human alveolar basal epithelial cell line (A549), primary human-derived pulmonary alveolar epithelial cells (HPAEpi), and in human-derived primary culture lung fibroblasts (HLF).

In data set [3] the test system is human lung fibroblasts (HLF). The data set can be described thus: Lactate dehydrogenase (LDH) cell death assay, HLF. The class given is cell-based. The settings on record: Ro24-7429 50-200 μM, Ro5-3335 150 μM.
Description: as §1, with “We conducted mechanistic studies in cell culture to examine the cellular and molecular mechanisms underlying the robust effects of RUNX1 inhibition in the protection against bleomycin-induced lung injury. We” for “We”

For data set [4], the system named is human lung fibroblasts (HLF). Put plainly: CyQUANT Direct Cell Proliferation Assay, HLF. The conditions noted are these: 72 hours, 150 μM. It is filed as cell-based.
Description: as §1, with “We conducted mechanistic studies in cell culture to examine the cellular and molecular mechanisms underlying the robust effects of RUNX1 inhibition in the protection against bleomycin-induced lung injury. We” for “We”

Regarding `COC(=O)c1ccc2c(c1)NC(=O)/C2=C(\Nc1ccc(N(C)C(=O)CN2CCN(C)CC2)cc1)c1ccccc1` [nintedanib], the “percent live cells compared to vehicle treated” value (shortened to “percent live cells”) in data set [1] is “significant reduction”.

As for `O=C1CN=C(c2ccc[nH]2)c2cc(Cl)ccc2N1` [Ro5-3335, [7-chloro-5-(2-pyrryl)-3H-1,4 benzodiazapin-2-(H)-one]], the “cell death by LDH analysis” value in data set [2] (A549, Ro24-7429 50-200 μM, Ro5-3335 150 μM) was “Very low levels of cell death”; in data set [3], “Very low levels of cell death”. The “percent live cells” value in data set [1] is reported as “significant reduction”. The anti-proliferative effect was 32% in data set [1] (A549, 48 hours) and 50% in data set [1] (A549, 72 hours). Further, in data set [4], the reduction in proliferation amounted to 40%.

Take `Cc1ccc(=O)n(-c2ccccc2)c1` [pirfenidone]: the cell death in data set [2] (A549, 48 hours) is recorded as 8%; in data set [2] (A549, 72 hours), 11%. Moreover, in data set [1], the “percent live cells” value is on record as “significant reduction”.
